Experimental data reported in PubChem BioAssay (NCI).
“And” between values parts separate entries of the source, which are not always exact repeats. Identical values can stand only once.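 Step 1: Grow cells in 96-well plates. Step 2: Expose to compound for 48 hours at 5 concentrations. Step 3: Interpolate endpoints linearly; if unreached, use highest concentration. GI50 marks 50% less growth. TGI marks complete inhibition of growth.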

Assays:
Assay in all cases: NCI anticancer screen, dose series, 48 h
HT29 colon = system: HT29 colon
DLD-1 colon = system: DLD-1 colon
786-0 renal = system: 786-0 renal
SK-MEL-5 melanoma = system: SK-MEL-5 melanoma
HCT-116 colon = system: HCT-116 colon
M19-MEL melanoma = system: M19-MEL melanoma
RPMI-8226 leukemia = system: RPMI-8226 leukemia
UO-31 renal = system: UO-31 renal
HCT-15 colon = system: HCT-15 colon
MDA-MB-435 = system: MDA-MB-435

| Structure (SMILES) | TGI (HT29 colon) | TGI (DLD-1 colon) | TGI (786-0 renal) | TGI (SK-MEL-5 melanoma) | TGI (HCT-116 colon) | TGI (M19-MEL melanoma) | TGI (RPMI-8226 leukemia) | TGI (UO-31 renal) | GI50 (RPMI-8226 leukemia) | GI50 (HCT-15 colon) | TGI (HCT-15 colon) | GI50 (HT29 colon) | GI50 (786-0 renal) | GI50 (SK-MEL-5 melanoma) | GI50 (HCT-116 colon) [µM] | GI50 (MDA-MB-435) | GI50 (UO-31 renal) | TGI (MDA-MB-435) [µM] | GI50 (DLD-1 colon) | GI50 (M19-MEL melanoma) |
| --- | --- | --- | --- | --- | --- | --- | --- | --- | --- | --- | --- | --- | --- | --- | --- | --- | --- | --- | --- | --- |
| CCCCCCCCCCCCCCC(C)CCC(=O)O (configuration not stated) | > 100 µM | > 100 µM | > 100 µM | > 100 µM | > 100 µM | > 100 µM |  |  |  |  |  |  |  |  |  |  |  |  |  |  |
| CN(C)c1ccc(O[Si](Oc2ccc(N(C)C)cc2)(Oc2ccc(N(C)C)cc2)Oc2ccc(N(C)C)cc2)cc1 | > 100 µM | > 100 µM | > 100 µM | > 100 µM | > 100 µM | > 100 µM | > 100 µM | > 100 µM |  |  |  |  |  |  |  |  |  |  |  |  |
| Nc1nc(=S)c2[nH]cnc2[nH]1 | 121 µM and > 250 µM | 202 µM |  |  |  | 205 µM | 2.77 µM and 22.3 µM and 3 µM |  | 0.255 µM and 1.3 µM and 0.488 µM | 0.515 µM and 2.51 µM and 1.7 µM | > 100 µM and 51.6 µM and 38.9 µM | 0.544 µM | 0.335 µM and 1.45 µM and 1.01 µM | 1.59 µM and 2.68 µM and 6.68 µM | 0.336 | 0.349 µM and 0.552 µM | 0.43 µM and 0.823 µM and 0.488 µM |  |  |  |
| c1ccc2c3c([nH]c2c1)C1C2CCCCN2C(c2ccncc2)N1CC3 (configuration not stated) | > 100 µM |  | > 100 µM | > 100 µM | > 100 µM | > 100 µM | 87.3 µM | 34.8 µM |  |  | > 100 µM |  |  |  |  |  |  |  |  |  |
| COc1ccc2c(c1)[n+](=O)c(C(C)=O)c(C)n2[O-] | > 100 µM | > 100 µM | > 100 µM | > 100 µM | > 100 µM | > 100 µM | > 100 µM | > 100 µM |  |  | > 100 µM |  |  |  |  |  |  |  |  |  |
| CN(C)c1ccc(N=C2C=CC(=C(C#N)C#N)c3ccccc32)cc1 | 10.4 µM | 16.1 µM | 11.4 µM | 0.713 µM | 5.26 µM | 5.8 µM | 11.6 µM | 14.2 µM |  |  | 4.72 µM |  |  |  |  |  |  | 0.191 |  |  |
| [Cl-].[Gd+3].[O-]/N=C(\c1ccccc1)c1ccccn1.[O-]/N=C(\c1ccccc1)c1ccccn1.[O-]/N=C(\c1ccccc1)c1ccccn1 | > 100 µM | > 100 µM | > 100 µM | > 100 µM | > 100 µM | > 100 µM | > 100 µM | > 100 µM | > 100 µM | 48.4 µM | > 100 µM | 44.9 µM | 57.8 µM | 48.9 µM | 49.3 |  | 35.3 µM |  | 39.9 µM | 52.7 µM |
| CC(=O)[O-].[Mn+3].[O-]c1ccc(Cl)cc1C=NCCN=Cc1cc(Cl)ccc1[O-] | > 100 µM | > 100 µM | > 100 µM | > 100 µM | > 100 µM | > 100 µM |  | > 100 µM |  | > 100 µM | > 100 µM | > 100 µM | > 100 µM | 88.5 µM | > 100 |  | > 100 µM |  | 36.9 µM | > 100 µM |
| Cc1nc(-n2nc(-c3ccccc3)cc2-c2ccccc2)sc1C(=O)/C=C/c1ccccc1 | > 100 µM | > 100 µM | > 100 µM | > 100 µM |  | > 100 µM | > 100 µM | > 100 µM |  |  | > 100 µM |  |  |  |  |  |  |  |  |  |
| NNC(=O)N/N=C1\CN(c2ccc(Cl)cc2Cl)C(=O)C(=O)C1c1nc2ccccc2o1 (configuration not stated) | > 100 µM | > 100 µM | > 100 µM | > 100 µM | > 100 µM | > 100 µM | > 100 µM | > 100 µM |  |  |  |  |  |  |  |  |  |  |  |  |
| O=C1CNN=C(Cn2nc(-c3ccccc3)c3ccccc3c2=O)N1 | > 100 µM | > 100 µM | > 100 µM | > 100 µM | > 100 µM | > 100 µM | > 100 µM | > 100 µM |  |  | > 100 µM |  |  |  |  |  |  |  |  |  |
| COc1ccc(-c2cc(-c3ccco3)c(C#N)c(=O)[nH]2)cc1 | > 100 µM | > 100 µM | > 100 µM |  | > 100 µM | > 100 µM | > 100 µM | > 100 µM |  |  | > 100 µM |  |  |  |  |  |  |  |  |  |
| COC(=O)c1sc(=NC(=S)N2CCCCC2)sc1C(=O)OC |  | > 100 µM | > 100 µM | > 100 µM | > 100 µM | > 100 µM | > 100 µM | > 100 µM |  |  | > 100 µM |  |  |  |  |  |  |  |  |  |
| Nc1ccc(C(=O)/C=C/c2ccccc2O)cc1 | > 100 µM | > 100 µM | > 100 µM | > 100 µM | > 100 µM | > 100 µM |  | > 100 µM |  |  | > 100 µM |  |  |  |  |  |  |  |  |  |
| COc1cc(CCc2ccc(OC(C)=O)cc2)cc(OC)c1OC | > 100 µM | > 100 µM | > 100 µM | > 100 µM | > 100 µM | > 100 µM | > 100 µM | > 100 µM |  |  | > 100 µM |  |  |  |  |  |  |  |  |  |
| O=c1cccccc1[O-].O=c1cccccc1[O-].O=c1cccccc1[O-].[Sm+3] | > 100 µM | > 100 µM | > 100 µM | 89.9 µM | 94.5 µM |  | > 100 µM | > 100 µM |  |  | > 100 µM |  |  |  |  |  |  |  | 18 µM |  |
| O=C(CC1=Nc2nnc(-c3nnc4n3C(=O)C(CC(=O)C3CC3)=N4)n2C1=O)C1CC1 | > 100 µM | > 100 µM | > 100 µM | > 100 µM | > 100 µM | > 100 µM | > 100 µM | > 100 µM |  |  | > 100 µM |  |  |  |  |  |  |  |  |  |
| CC1CC(C)C(C(O)CC2CC(=O)N(c3ccccc3)C(=O)C2)C(O)C1 (configuration not stated) | > 100 µM | > 100 µM | > 100 µM |  | > 100 µM | > 100 µM | > 100 µM | > 100 µM |  |  |  |  |  |  |  |  |  |  |  |  |
| O=NN(CCCl)C(=O)NC1CCCCC1 | 139 µM and 165 µM | 39.2 µM and 98.6 µM and 86.2 µM | 33.9 µM and 65.9 µM and 68.6 µM | 78.5 µM and 133 µM and 209 µM | 50.2 µM and 105 µM | 81.5 µM and 123 µM and 163 µM | 40.8 µM and 122 µM and 73.9 µM | 54.6 µM and 168 µM and 206 µM | 27.1 µM | 16.8 µM and 54.7 µM | 33.5 µM and 103 µM and 115 µM | 36.6 µM and 64.3 µM | 32 µM | 23 µM and 78.4 µM | 21 |  | 22 µM and 52.9 µM | 102 | 18.4 µM and 42.2 µM | 27.4 µM and 60.2 µM |
| CC(=O)OCC1OC(n2c(=S)n(-c3ccccc3)c(=O)c3cc(Br)cc(Br)c32)C(OC(C)=O)C(OC(C)=O)C1OC(C)=O (configuration not stated) | > 100 µM | > 100 µM | > 100 µM | > 100 µM | > 100 µM | > 100 µM | > 100 µM | > 100 µM | 33.3 µM |  | > 100 µM |  | 25.7 µM and 98.7 µM |  |  |  | > 100 µM and 42.9 µM |  |  |  |
| CCOc1ccccc1NC(=O)C1=C(C)NC(C)=C(C(=O)Nc2ccccc2OCC)C1c1ccc([N+](=O)[O-])cc1 | > 100 µM | > 100 µM | > 100 µM |  | > 100 µM | > 100 µM | > 100 µM | > 100 µM |  |  | > 100 µM |  |  |  |  |  |  |  |  |  |
| Nc1nc(=S)[nH]c(C(=O)Nc2nccs2)c1-c1ccccc1 | > 100 µM | > 100 µM | > 100 µM | > 100 µM | > 100 µM | > 100 µM | > 100 µM | > 100 µM |  |  | > 100 µM |  |  |  |  |  |  |  |  |  |
| CN(C)c1ccc(C2CC(C)(O)Oc3cc4c(cc32)OCO4)cc1 (configuration not stated) | 76.1 µM |  | > 100 µM | > 100 µM | > 100 µM |  | 47.6 µM | 93.1 µM |  |  | > 100 µM |  |  |  |  |  |  | 74.1 |  |  |
| COCC1N=C(c2cc(OC)c(OC)c(OC)c2-c2cc3c(cc2[C@H](C)O)OCO3)O[C@H]1c1ccccc1 (some centres not stated) | > 100 µM | > 100 µM | > 100 µM | > 100 µM | > 100 µM | > 100 µM | > 100 µM | > 100 µM |  |  | > 100 µM |  |  |  |  |  |  |  |  |  |
| CCSc1ncc(Br)c(Sc2nc(N)nc3nc[nH]c23)n1 | 80.3 µM |  | > 100 µM | 49.8 µM | > 100 µM |  | > 100 µM | > 100 µM | 3.87 µM | 4.07 µM | > 100 µM | 5.74 µM | 3.22 µM | 3.8 µM | 2.86 | 3.72 µM | 2.3 µM | > 100 |  |  |
| COc1ccc(C(=O)O/N=C2/CCCCC2CN(C)C)cc1 (configuration not stated) | > 100 µM | > 100 µM | > 100 µM | > 100 µM | > 100 µM | > 100 µM | > 100 µM | > 100 µM |  |  | > 100 µM |  |  |  |  |  |  |  |  |  |
| Oc1ccccc1C=Nc1nc(OCc2ccccc2)nc2[nH]ncc12 | 49.3 µM |  | > 100 µM | 29.7 µM | 41.9 µM |  | 43.5 µM | > 100 µM | 14.4 µM | 38.3 µM | > 100 µM | 22.5 µM | 34.8 µM | 15.1 µM | 18.4 | 20.7 µM | 30.5 µM | 44.8 |  |  |
